The compounds below were run against T1, Glucocorticoid Receptor (GR) (Homo sapiens, UniProt P04150) (assay: GR reporter assay (GR-GAL4 Reporter (Luc)-HEK293 cells, Steady-Glo luciferase)). Settings: 24 hours, read-out: GR reporter agonist.
T1 construct: A GAL4-responsive firefly luciferase reporter is the read-out; Some cells also express CD40, which is irrelevant for the free small molecules
T1 sequence (P04150 524-777 limits assumed): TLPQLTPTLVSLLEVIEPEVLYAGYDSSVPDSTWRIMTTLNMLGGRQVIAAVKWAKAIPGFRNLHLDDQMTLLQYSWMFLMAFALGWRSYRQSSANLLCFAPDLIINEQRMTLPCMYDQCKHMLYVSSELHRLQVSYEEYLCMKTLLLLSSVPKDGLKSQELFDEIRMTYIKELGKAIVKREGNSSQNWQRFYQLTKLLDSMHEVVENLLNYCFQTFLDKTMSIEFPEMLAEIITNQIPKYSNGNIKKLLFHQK
Format: cell-based
Description: Certain GR agonist compounds of the present disclosure were tested in a GR reporter assay. Briefly, CD40 expressing GR-GAL4 Reporter (Luc)-HEK293 or parental GR-GAL4 reporter (Luc)-HEK293 cells were harvested from culture and seeded wells at a density of ˜30,000 cells per well in 45 μl of assay medium. Cells were incubated at 37° C. in a CO2 incubator overnight. […] The plates were incubated at 37° C. in a CO2 incubator for 24 hours. The Steady-Glo Luciferase Assay System (Promega), following manufacturer's instructions, was used to detect luminescence, which was measured using a luminometer.
The average background luminescence (cell-free control wells) was substracted from the luminescence reading of all wells. […] The EC50 value for each conjugate was determined in both CD40 expressing and parental GR-GAL4 Reporter (Luc)-HEK293 cells and the ratio was used to as a measure of linker stability and non-specific uptake.

EC50 [nM] | Compound
4.9 | C[C@]12C=CC(=O)C=C1CC[C@@H]1[C@@H]2[C@@H](O)C[C@@]2(C)[C@H]1C[C@H]1O[C@@H](C3CCC3)O[C@]12C(=O)CO [Compound 85]
25.2 | C[C@]12C=CC(=O)C=C1CC[C@@H]1[C@@H]2[C@@H](O)C[C@@]2(C)[C@H]1C[C@H]1O[C@@H](c3ccc4c(c3)OCO4)O[C@]12C(=O)CO [Compound 6]
23.8 | C[C@]12C=CC(=O)C=C1[C@@H](F)C[C@H]1[C@@H]3C[C@H]4O[C@@H](c5ccc(OCC(F)(F)CN)c(F)c5)O[C@@]4(C(=O)CO)[C@@]3(C)C[C@H](O)[C@@]12F [Compound 19]
17 | C[C@]12C=CC(=O)C=C1CC[C@@H]1[C@@H]2[C@@H](O)C[C@@]2(C)[C@H]1C[C@H]1O[C@@H](c3ccc(Cn4ccnn4)cc3)O[C@]12C(=O)CO [Compound 2]
0.44 | C[C@]12C=CC(=O)C=C1[C@@H](F)C[C@H]1[C@@H]3C[C@H]4O[C@@H](c5sccc5F)O[C@@]4(C(=O)CO)[C@@]3(C)C[C@H](O)[C@@]12F [Compound 30a]
47 | C[C@]12C=CC(=O)C=C1CC[C@@H]1[C@@H]2[C@@H](O)C[C@@]2(C)[C@H]1C[C@H]1O[C@@H](c3ccc4c(c3)OCCO4)O[C@]12C(=O)CO [Compound 7]
1.1 | C[C@]12C=CC(=O)C=C1CC[C@H]1[C@@H]3C[C@H]4O[C@@H](c5ccccc5)O[C@@]4(C(=O)CO)[C@@]3(C)C[C@H](O)[C@@]12F [Compound 8]
39.1 | C[C@]12C=CC(=O)C=C1[C@@H](F)C[C@H]1[C@@H]3C[C@H]4O[C@@H](c5cccc(F)c5)O[C@@]4(C(=O)CN)[C@@]3(C)C[C@H](O)[C@@]12F [Compound 16]
14.3 | C[C@]12C=CC(=O)C=C1[C@@H](F)C[C@H]1[C@@H]3C[C@H]4O[C@@H](C#Cc5ccccc5)O[C@@]4(C(=O)CO)[C@@]3(C)C[C@H](O)[C@@]12F [Compound 40]
0.89 | C[C@]12C=CC(=O)C=C1CC[C@@H]1[C@@H]2[C@@H](O)C[C@@]2(C)[C@H]1C[C@H]1O[C@@H](c3sccc3F)O[C@]12C(=O)CO [Compound 53a]
9 | C[C@]12C=CC(=O)C=C1[C@@H](F)C[C@H]1[C@@H]3C[C@H]4O[C@@H](C5CC6(CCOCC6)C5)O[C@@]4(C(=O)CO)[C@@]3(C)C[C@H](O)[C@@]12F [Compound 42]
23 | C[C@@H](c1ccccc1)[C@@H]1O[C@@H]2C[C@H]3[C@@H]4C[C@H](F)C5=CC(=O)C=C[C@]5(C)[C@@]4(F)[C@@H](O)C[C@]3(C)[C@]2(C(=O)CO)O1 [Compound 50]
22.2 | Cc1nn[nH]c1-c1ccc([C@@H]2O[C@@H]3C[C@H]4[C@@H]5CCC6=CC(=O)C=C[C@]6(C)[C@H]5[C@@H](O)C[C@]4(C)[C@]3(C(=O)CO)O2)cc1 [Compound 1]
2.9 | C[C@]12C=CC(=O)C=C1[C@@H](F)C[C@H]1[C@@H]3C[C@H]4O[C@@H](C56CC(C5)C6)O[C@@]4(C(=O)CO)[C@@]3(C)C[C@H](O)[C@@]12F [Compound 15]
0.68 | C[C@]12C=CC(=O)C=C1[C@@H](F)C[C@H]1[C@@H]3C[C@H]4O[C@@H](C5CCC5)O[C@@]4(C(=O)CO)[C@@]3(C)C[C@H](O)[C@@]12F [Compound 14]
32.6 | C[C@]12C=CC(=O)C=C1CC[C@@H]1[C@@H]2[C@@H](O)C[C@@]2(C)[C@H]1C[C@H]1O[C@@H](/C=C/C3CC3)O[C@]12C(=O)CO [Compound 58]
1.2 | C[C@]12C=CC(=O)C=C1[C@@H](F)C[C@H]1[C@@H]3C[C@H]4O[C@@H](c5ccc(Oc6ccccc6)c(F)c5)O[C@@]4(C(=O)CO)[C@@]3(C)C[C@H](O)[C@@]12F [Compound 18]
21.8 | Cn1nccc1[C@@H]1O[C@@H]2C[C@H]3[C@@H]4CCC5=CC(=O)C=C[C@]5(C)[C@H]4[C@@H](O)C[C@]3(C)[C@]2(C(=O)CO)O1 [Compound 4]
0.46 | C[C@]12C=CC(=O)C=C1[C@@H](F)C[C@H]1[C@@H]3C[C@H]4O[C@@H](c5ccc(F)s5)O[C@@]4(C(=O)CO)[C@@]3(C)C[C@H](O)[C@@]12F [Compound 27]
49.1 | Cn1cc([C@@H]2O[C@@H]3C[C@H]4[C@@H]5CCC6=CC(=O)C=C[C@]6(C)[C@H]5[C@@H](O)C[C@]4(C)[C@]3(C(=O)CO)O2)cn1 [Compound 5]
0.57 | C[C@]12C=CC(=O)C=C1CC[C@H]1[C@@H]3C[C@H]4O[C@@H](c5sccc5F)O[C@@]4(C(=O)CO)[C@@]3(C)C[C@H](O)[C@@]12F [Compound 52a]
3.7 | C[C@]12C=CC(=O)C=C1[C@@H](F)C[C@H]1[C@@H]3C[C@H]4O[C@@H](c5cc6c(s5)CCCC6)O[C@@]4(C(=O)CO)[C@@]3(C)C[C@H](O)[C@@]12F [Compound 43]
1.2 | C[C@]12C=CC(=O)C=C1CC[C@H]1[C@@H]3C[C@H]4O[C@@H](C5CCC5)O[C@@]4(C(=O)CO)[C@@]3(C)C[C@H](O)[C@@]12F [Compound 51]
172 | C[C@]12C=CC(=O)C=C1CC[C@@H]1[C@@H]2[C@@H](O)C[C@@]2(C)[C@H]1C[C@H]1O[C@@H](/C=C/c3cccc(N)c3)O[C@]12C(=O)CO [Compound 67]
25.1 | C[C@]12C=CC(=O)C=C1CC[C@@H]1[C@@H]2[C@@H](O)C[C@@]2(C)[C@H]1C[C@H]1O[C@@H](c3ccc(Cc4c[nH]nn4)cc3)O[C@]12C(=O)CO [Compound 3]

What follows are compounds tested on parental GR-GAL4 Reporter (Luc)-HEK293 cell line (non-BAFF-expressing) (assay: GR-GAL4 luciferase reporter assay, parental reporter cell line (Anti-BAFF conjugates)). Settings: Table 22, 24 hour incubation; * = low confidence in EC50 due to curve fit.
Format: cell-based
Description: (§1) To determine the level of GR agonism at the end of the incubation luciferase levels were determined with the Steady-Glo Luciferase Assay System (Promega, cat #E2520 or E2550). The results were analyzed with Graphpad Prism software v9.1 (Graphpad Inc) to determine EC50.
(§2) The memBAFF and parental GR-GAL4 luciferase cell reporter cell lines were plated in 96 well plates in complete DMEM media. […] To determine the level of GR agonism found for the different treatments, at the end of the incubation firefly luciferase was measured as per manufacturer's instructions with the Steady-Glo Luciferase Assay System (Promega, cat #E2520 or E2550) and then analyzed with Graphpad Prism software (Graphpad Inc v9.1) to determine EC50.

Compound | EC50 [nM]
belimumab [BAFF mAb (belimumab)] | > 500

Same assay, conditions: parental line, 500 nM-[…]

Compound | GR agonism over the complete dilution series
belimumab [BAFF mAb (belimumab)] | no GR agonism

What follows are compounds tested on antigen-driven (FITC) ear inflammation (assay: FITC antigen-driven ear inflammation in mice (ear swelling)). Settings: 24 hours after FITC rechallenge, ip 20 mpk conjugate or antibody, 10 mpk dexamethasone.
Format: in vivo, Balb/c mice
Description: Female Balb/c mice aged 6-7 weeks (Envigo Labs) were used. On day 0 ear thickness was measured in all mice using microcalipers. On day 0 mice were then sensitized to the antigen fluorescsein isothiocyanate (FITC) on a shaved flank by application of 50 microliters of 1% FITC in a formulation of 50% acetone:50% dibutyl phthalate. […] After 24 hours ear thickness was determined on the treated ear. […] Animals were bled for serum and sacrificed on day 9. […] Ear thickness and ELISA results were analyzed for differences in means with GraphPad Prism software by one-way ANOVA with Dunnett's multiple comparisons.

Compound | Mean Swelling (mm)
C[C@@H]1C[C@H]2[C@@H]3CCC4=CC(=O)C=C[C@]4(C)[C@@]3(F)[C@@H](O)C[C@]2(C)[C@@]1(O)C(=O)CO [dexamethasone, reference compound] | 0.07

The compounds below were run on GR-GAL4 Reporter (Luc)-HEK293 cell line stably expressing membrane human BAFF (memBAFF) (assay: GR-GAL4 luciferase reporter assay, memBAFF reporter cell line). Settings: Table 22, 24 hour incubation; * = low confidence in EC50 due to curve fit; read-out: EC50 (nM) Mem(BAFF) line.
Format: cell-based
Description: as §1, §2

Compound | EC50 [nM]
belimumab [BAFF mAb (belimumab)] | > 500

Same assay, conditions: memBAFF line, 500 nM-[…]

Compound | GR agonism over the complete dilution series
belimumab [BAFF mAb (belimumab)] | no GR agonism

What follows are compounds tested on Human monocyte derived dendritic cells and allogeneic CD3+ T cells (assay: Allo mixed lymphocyte assay (monocyte derived dendritic cells + allogeneic CD3+ T cells), cytokines by MSD ELISA). Settings: 100 nM, 48 hrs co-culture, mean of duplicates.
Format: cell-based
Description: Human monocyte derived dendritic cells were derived in vitro from healthy human donor CD 14^+ monocytes, isolated from blood by standard cell marker negative selection with antibody coated beads, by culture of the monocytes under a standard dendritic cell generation protocol with added GM-CSF and IL4 for 6 days. […] Conjugates, protein, and small molecule controls were added at 100 nM immediately after. After 48 hrs of co-culture supernatants were collected from wells and cytokine levels for T cell derived cytokines (IL2, IFNγ) and dendritic cell derived cytokines (IL6, IL 12p40) were measured by MSD multiplex ELISA and plate reader per manufacturer's instructions (Meso Scale Diagnostics LLC).

Compound | IFNγ % Media [% Media] | IL2 % Media [% Media] | IL12p40 % Media [% Media]
belimumab [Anti-BAFF (belimumab)] | 140 | 72 | 139
CCCC1O[C@@H]2C[C@H]3[C@@H]4CCC5=CC(=O)C=C[C@]5(C)[C@H]4[C@@H](O)C[C@]3(C)[C@]2(C(=O)CO)O1 (stereo partly shown) [budesonide, reference compound] | 1 | 14 | 1

Same assay, conditions: 100 nM, 48 hrs co-culture, mean of duplicates; LLOQ = lower limit of quantitation in the MSD assay

Compound | IL6 % Media [% Media]
belimumab [Anti-BAFF (belimumab)] | 121
